Values joined by “and” are separate entries in the source; they are usually repeats but may differ in a detail not shown here. Identical values can stand only once. Like-named read-outs stand apart in the source and are kept apart here.
What was measured:
[1] = test system: AsPC-1 pancreatic cancer cells; assay: Efficacy study in mouse AsPC-1 CDX model, compounds given orally; assay type: in vivo, Balb/C nude mice; settings: BID; for effect on mouse body weight: given orally; for TGI (%): oral, Compound A1 100 mg/kg for 12 days, Compound 1 126 mg/kg (molar equivalent) for 16 days
Experimental: (§1) Balb/C nude mice, aged 6-8 weeks, were inoculated subcutaneously with 5×10^6 AsPC-1 pancreatic cancer cells, in 0.1 ml PBS. Eleven days post-inoculation, tumor bearing animals were randomized into Vehicle (four mice), Compound A1 (four mice) and Compound 1 (five mice), followed by oral dosing twice daily at 100 mg/kg for Compound A1 and 126 mg/kg for Compound 1 (Table 6). Tumor volume was measured every three days using a caliper, and tumor size was calculated using the formula TV=length×width^2×0.5. Tumor growth inhibition (TGI) was calculated using the given formula TGI=[1−(Vtx_t−Vtx_0)/(Vct_t−Vct_0)]×100%, where Vtx_t means tumor volume in treatment group measured at time point t, Vtx_0 means tumor volume of treatment group measured at time point 0, Vct_t means tumor volume of vehicle group measured at time point t, and Vct_0 means tumor volume of vehicle group measured at time point 0.

AsPC-1 cells = assay: Tumor growth inhibition in mouse AsPC-1 CDX model, compounds given parenterally (IP/IV); assay type: in vivo; settings: for TGI (%): 27 days; for tumor growth inhibition compared to vehicle control: FIG. 6
Experimental: as §1
Balb/C nude mice bearing tumors derived from AsPC-1 cells as described previously, were grouped into Vehicle intraperitoneal (IP) (five mice), Compound A1 IP (five mice), Compound A1 intravenous (IV) (three mice), Compound 52 IP (five mice) and Compound 52 IV injections (six mice). All compounds were administered once daily at equal molarity (Compound A1, 6 mg/kg) for 27 days. Tumor volume was measured and calculated as described previously.

[2] = test system: GP2D colonrectal cancer cells; assay type: in vivo; settings: for TGI (%): 21 days
Experimental: After Balb/C nude mice (aged 6-8 weeks) were inoculated subcutaneously with 5×10^6 GP2D colonrectal cancer cells, in 0.1 ml PBS, they were grouped 11 days post-inoculation and treated with intraperitoneal injections of the given compounds for 21 days. Note that Compound 52 at 40.3 mg/kg and Compound 53 at 43 mg/kg are molar equivalent to 18 mg/kg of Compound A1. Tumor volume and TGI were measured and calculated as described before (Table 8).
Balb/C nude mice, aged 6-8 weeks, were inoculated subcutaneously with 5×10^6 GP2D colonrectal cancer cells, in 0.1 ml PBS. Eleven days post the inoculation, tumor bearing animals were randomly grouped based on given compounds and vehicle. Compound A1, as positive control, was IP administered at 18 mg/kg qd for 21 days. Compound 52 at 40.3 mg/kg (molar equivalent to 18 mg/kg of Compound A1) was IV administered q3d, and subsequently switched to 27 mg/kg for 21 days. Compound 53 at 43 mg/kg (molar equivalent to 18 mg/kg of Compound A1) was either IV or IP dosed q3d for 21 days (Table 8).

[3] = Mouse PK study: blood AUC of compound A1 after oral or intravenous administration; assay type: in vivo; settings: ICR mice, equimolar dose
Experimental: A total 126 ICR mice (male, 30-34 g) were randomly divided into 42 groups with 3 animals/group (oral or intravenous administration). Blood samples were collected at 0.167, 0.5, 1, 2, 4, 6, 8, and 24 hours post-dose for oral group and 0.083, 0.25, 0.5, 1, 2, 4, 6, and 8 hours post-dose for intravenous group. The test compounds were dissolved into vehicle solutions (5% DMSO+5% Solutol+90% 20% SBE-β-CD solvents).
Animals were administered with compound A1 or exemplary test compounds by intravenous bolus administration at 3 mg/kg (equimolar dose to compound A1) and oral administration at 10 mg/kg (equimolar dose to compound A1) after fasted 12 hours, respectively. Post-dose blood samples were collected at preset time point (50 μL/animal/time point), and 20 μL blood was accurately separated into 200 μL eppendorf (EP) tube containing acetonitrile and internal standard. The supernatant was prepared by centrifuging the blood samples at approximately 4° C., 12000 rpm for 5 minutes. All samples were then quickly frozen over dry ice and kept at −60° C. or lower until analysis. The supernatant was analyzed by LC-MS/MS to detect the concentration of test compounds and metabolites.

[4] = IP, qd, Compound A1 6 mg/kg, Compound 52 13.44 mg/kg (molar equivalent)
[5] = IP, qd, Compound A1 18 mg/kg, Compound 52 40.3 mg/kg (molar equivalent)

| SMILES | effect on mouse body weight [1] | TGI (%) [1] | TGI (%) (AsPC-1 cells; [4]) | tumor growth inhibition compared to vehicle control (AsPC-1 cells; intraperitoneal administration) | TGI (%) [2, 5] | also measured |
| --- | --- | --- | --- | --- | --- | --- |
| C#Cc1c(F)ccc2cc(O)cc(-c3ncc4c(N5CC6CCC(C5)N6C(=O)OC(C)OC(=O)CCC)nc(OC[C@@]56CCCN5C[C@H](F)C6)nc4c3F)c12 (stereo partly drawn) [Compound 1] | Neither Compound 1 nor A1 adversely affected mouse body weight | 53.5% and 53.95% |  |  |  |  |
| C#Cc1c(F)ccc2cc(O)cc(-c3ncc4c(N5CC6CCC(C5)N6)nc(OC[C@@]56CCCN5C[C@H](F)C6)nc4c3F)c12 [Compound A1, reference compound] | Neither Compound 1 nor A1 adversely affected mouse body weight | 9.07% | 37.27% | significant tumor growth inhibition | 85.0% | animal death observed (footnote D in TGI column) (AsPC-1 cells; IV, qd, Compound A1 6 mg/kg, 3 mice): caused the death of all mice within 24 hours |
| C#Cc1c(F)ccc2cc(OC(=O)OC(COC(=O)CCCCCCCC)COC(=O)CCCCCCCC)cc(-c3ncc4c(N5CC6CCC(C5)N6)nc(OC[C@@]56CCCN5C[C@H](F)C6)nc4c3F)c12 [Compound 52] |  |  | 36.12% | significant tumor growth inhibition | 87.1% | TGI (%) (AsPC-1 cells; IV, qd, Compound 52 13.44 mg/kg (molar equivalent to 6 mg/kg A1)): 47.22%; tumor growth inhibition compared to vehicle control (AsPC-1 cells; intravenous injection): significant tumor growth inhibition; body weight of mice ([2]; IV 27 mg/kg once every 3 days): remained normal; TGI (%) ([2]; IV, q3d, 27 mg/kg (molar equivalent to 12 mg/kg A1)): 80.0%; death of recipient animals ([2]; intravenously dosed at 40.3 mg/kg (molar equivalent to 18 mg/kg A1)): 50%; growth inhibition of tumors harboring the KRAS^G12D mutation ([2]; parenterally administered with the dosages of Table 8): significant growth inhibition |
| C#Cc1c(F)ccc2cc(O)cc(-c3ncc4c(N5CC6CCC(C5)N6C(=O)OC(C)OC(=O)CC(C)C)nc(OC[C@@]56CCCN5C[C@H](F)C6)nc4c3F)c12 (stereo partly drawn) [Compound 10] |  |  |  |  |  | AUC of A1 increased compared to direct oral administration of A1 [3]: more than 8.5 times |
